Experimental data published in US9085603B2, “Progesterone receptor antagonists” (Bayer Intellectual Property GmbH, priority 2010, dated 2015).

target: T1, human progesterone receptor A (Homo sapiens, UniProt P06401); test: Progesterone receptor antagonistic effect in stably transfected SK-N-MC cells, MTV-LUC reporter (PR-A); type: cell-based; settings: antagonism of 0.1 nmol/l promegestone, luciferase reporter, 24 hours
T1 construct: expressed in transfected cells; host or cells: SK-N-MC human neuroblastoma cells, stably transfected with pRChPR-A-neo and pMMTV-LUC
T1 sequence (P06401 1-769 isoform P06401-2): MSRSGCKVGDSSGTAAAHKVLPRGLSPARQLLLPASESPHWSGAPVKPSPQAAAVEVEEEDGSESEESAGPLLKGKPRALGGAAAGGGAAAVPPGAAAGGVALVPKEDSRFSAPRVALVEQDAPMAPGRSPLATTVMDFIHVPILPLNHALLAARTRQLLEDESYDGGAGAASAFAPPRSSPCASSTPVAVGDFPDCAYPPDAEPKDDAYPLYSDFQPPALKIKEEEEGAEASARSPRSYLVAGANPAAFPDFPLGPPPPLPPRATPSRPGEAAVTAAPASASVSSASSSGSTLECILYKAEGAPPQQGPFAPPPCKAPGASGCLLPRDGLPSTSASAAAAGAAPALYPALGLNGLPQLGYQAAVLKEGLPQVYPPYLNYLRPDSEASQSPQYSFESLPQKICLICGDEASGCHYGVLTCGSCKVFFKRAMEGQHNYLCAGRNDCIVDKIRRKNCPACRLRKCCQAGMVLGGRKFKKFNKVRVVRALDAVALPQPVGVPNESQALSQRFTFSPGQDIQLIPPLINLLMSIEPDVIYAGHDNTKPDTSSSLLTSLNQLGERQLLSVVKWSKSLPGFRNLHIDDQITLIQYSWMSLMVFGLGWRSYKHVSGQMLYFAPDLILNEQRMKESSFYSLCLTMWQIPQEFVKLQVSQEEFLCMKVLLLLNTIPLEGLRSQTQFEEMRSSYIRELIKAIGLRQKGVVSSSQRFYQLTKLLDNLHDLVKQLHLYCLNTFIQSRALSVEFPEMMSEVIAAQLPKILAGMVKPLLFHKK
Procedure: Progesterone Receptor Antagonistic Effect in Stable Transfectants of Human Neuroblastoma Cells (SK-N-MC cells) with the Human Progesterone A or Progesterone B Receptor and a MTV-LUC Reporter Construct
SK-N-MC cells (human neuroblastoma cells), which have been stably transfected with plasmids which express the human progesterone receptor B (pRChPR-B-neo) or the human progesterone receptor A (pRChPR-A-neo) and a reporter construct (pMMTV-LUC), were incubated for 24 hours either in the absence (negative control) or in the presence of increasing amounts of the particular test compound (0.01 nmol/l, 0.1 nmol/l, 1 nmol/l, 10 nmol/l, 100 nmol/l and 1 μmol/l) in order to determine the agonistic efficacy. As a positive control of the reporter gene induction, the cells were treated with the synthetic gestagen promegestone (0.01 nmol/l, 0.1 nmol/l, 1 nmol/l, 10 nmol/l, 100 nmol/l and 1 μmol/l). To determine the antagonistic activity, the cells were treated with 0.1 nmol/l of promegestone and additionally with increasing amounts of the particular test compound (0.01 nmol/l, 0.1 nmol/l, 1 nmol/l, 10 nmol/l, 100 nmol/l and 1 μmol/l). The activity of the reporter gene LUC (LUC=luciferase) was determined in the cell lysates and measured as RLU (relative light units). All measurement values are given as percentage efficacy and as EC50 or IC50 concentrations.

First: CN(C)C(=O)N1CCN(Cc2ccc([C@H]3C[C@@]4(C)[C@@H](CC[C@@]4(O)C(F)(F)C(F)(F)F)[C@@H]4CCC5=CC(=O)CCC5=C43)cc2)CC1 [Example 42, 4-{4-[(11β,17β)-17-Hydroxy-3-oxo-17-(pentafluoroethyl)estra-4,9-dien-11-yl]benzyl}-N,N-dimethylpiperazine-1-carboxamide]
Second: CNC(=O)CN1CCN(Cc2ccc([C@H]3C[C@@]4(C)[C@@H](CC[C@@]4(O)C(F)(F)C(F)(F)F)[C@@H]4CCC5=CC(=O)CCC5=C43)cc2)CC1 [Example 45, 2-(4-{4-[(11β,17β)-17-Hydroxy-3-oxo-17-(pentafluoroethyl)estra-4,9-dien-11-yl]benzyl}piperazin-1-yl)-N-methylacetamide]
The IC50 of the first is 3.2-fold lower: 0.52 nM for the first, 1.65 nM for the second. The first is the more potent here.

Going from `C[C@]12C[C@H](c3ccc(CNc4ccc(C(=O)Nc5ccccc5)cc4)cc3)C3=C4CCC(=O)C=C4CC[C@H]3[C@@H]1CC[C@@]2(O)C(F)(F)C(F)(F)F` [Example 54, 4-({4-[(11β,17β)-17-Hydroxy-3-oxo-17-(pentafluoroethyl)estra-4,9-dien-11-yl]benzyl}amino)-N-phenylbenzamide] to `C[C@]12C[C@H](c3ccc(CNc4ccc(C(N)=O)cc4)cc3)C3=C4CCC(=O)C=C4CC[C@H]3[C@@H]1CC[C@@]2(O)C(F)(F)C(F)(F)F` [Example 32, 4-({4-[(11β,17β)-17-Hydroxy-3-oxo-17-(pentafluoroethyl)estra-4,9-dien-11-yl]benzyl}amino)benzamide], the IC50 falls from 1.28 nM to 0.78 nM (1.6-fold).

Going from `CN(CCc1ccccn1)Cc1ccc([C@H]2C[C@@]3(C)[C@@H](CC[C@@]3(O)C(F)(F)C(F)(F)F)[C@@H]3CCC4=CC(=O)CCC4=C32)cc1` [Example 52, (11β,17β)-17-Hydroxy-11-[4-({methyl[2-(pyridin-2-yl)ethyl]amino}methyl)phenyl]-17-(pentafluoroethyl)estra-4,9-dien-3-one] to `CN(C)CCN(C)Cc1ccc([C@H]2C[C@@]3(C)C(CC[C@@]3(O)C(F)(F)C(F)(F)F)C3CCC4=CC(=O)CCC4=C32)cc1` (stereo partly drawn) [Example 27, (11β,17β)-11-[4-({[2-(Dimethylamino)ethyl](methyl)amino}methyl)phenyl]-17-hydroxy-17-(pentafluoroethyl)estra-4,9-dien-3-one], the IC50 falls from 6.5 nM to 3.52 nM (1.8-fold).

Going from `C[C@]12C[C@H](c3ccc(CNc4ccc(S(N)(=O)=O)cc4)cc3)C3=C4CCC(=O)C=C4CC[C@H]3[C@@H]1CC[C@@]2(O)C(F)(F)C(F)(F)F` [Example 18, 4-({4-[(11β,17β)-17-Hydroxy-3-oxo-17-(pentafluoroethyl)estra-4,9-dien-11-yl]benzyl}amino)benzenesulphonamide] to `COc1cccc(NCc2ccc([C@H]3C[C@@]4(C)[C@@H](CC[C@@]4(O)C(F)(F)C(F)(F)F)[C@@H]4CCC5=CC(=O)CCC5=C43)cc2)c1` [Example 22, (11β,17β)-17-Hydroxy-11-(4-{[(3-methoxyphenyl)amino]methyl}phenyl)-17-(pentafluoroethyl)estra-4,9-dien-3-one], the IC50 rises from 0.51 nM to 2.52 nM (4.9-fold). The first is the more potent here.

Compared with `C[C@]12C[C@H](c3ccc(CNCc4ccncc4)cc3)C3=C4CCC(=O)C=C4CC[C@H]3[C@@H]1CC[C@@]2(O)C(F)(F)C(F)(F)F` [Example 47, (11β,17β)-17-Hydroxy-17-(pentafluoroethyl)-11-(4-{[(pyridin-4-ylmethyl)amino]methyl}phenyl)estra-4,9-dien-3-one], `C[C@]12C[C@H](c3ccc(CN4CCN(c5ccncc5)CC4)cc3)C3=C4CCC(=O)C=C4CC[C@H]3[C@@H]1CC[C@@]2(O)C(F)(F)C(F)(F)F` [Example 50, (11β,17β)-17-Hydroxy-17-(pentafluoroethyl)-11-(4-{[4-(pyridin-4-yl)piperazin-1-yl]methyl}phenyl)estra-4,9-dien-3-one] is 2.3-fold lower in IC50: 2.71 nM for the first, 1.2 nM for the second.

`C[C@]12C[C@H](c3ccc(CN4CCN(Cc5cccnc5)CC4)cc3)C3=C4CCC(=O)C=C4CC[C@H]3[C@@H]1CC[C@@]2(O)C(F)(F)C(F)(F)F` [Example 44, (11β,17β)-17-Hydroxy-17-(pentafluoroethyl)-11-(4-{[4-(pyridin-3-ylmethyl)piperazin-1-yl]methyl}phenyl)estra-4,9-dien-3-one] was tested, and the IC50 was 3.06 nM.
